From patent US20250353891A1 (MEDIMMUNE LIMITED, priority 2022, published 2025)
Read-outs that look alike come from different tables or passages of the source. Starred links: 1 amine or outer side, 2 acyl side, 3 side chain; linkers in the order of their positions; H or OH if unused. Non-standard residues stand in square brackets, D forms with d. Residues, ends and D or L forms follow the SMILES beside them. Groups on a side chain read outwards from the residue. *: point of attachment. C18 diacid = O=C(O)CCCCCCCCCCCCCCCCC(=O)*; Dip = N[C@H](C(=O)O)C(c1ccccc1)c1ccccc1; γGlu = O=C(O)[C@H](CCC(=O)[*:2])N[*:1]; Stearoyl = CCCCCCCCCCCCCCCCCC(=O)*; Palmitoyl = CCCCCCCCCCCCCCCC(=O)*; αMeF = C[C@](N)(Cc1ccccc1)C(=O)O; PEG4 = NCCOCCOCCOCCOCCC(=O)O; Nle = CCCC[C@H](N)C(=O)O; PEG2 = NCCOCCOCCC(=O)O; AEEA = NCCOCCOCC(=O)O; Aib = CC(C)(N)C(=O)O

Tests used:
[1] = Mouse acute food intake study; format: in vivo; conditions: male C57Bl/6 mice, s.c., dose 10 nmol/kg, cumulative food intake at 24 hr vs vehicle
Experimental: Male C57Bl/6 mice obtained from Jackson Laboratories or Charles River at 8-9 weeks of age and were housed one per cage in BioDaq (Research Diets) cages. Mice were placed on Alpha Dri bedding, standard chow diet (Envigo, 2018) and given water pouches. Mice were allowed to acclimate for 1-2 weeks. Body weight was measured to ensure appropriate acclimation. After acclimation, mice were sham dosed a minimum of 2 times prior to initiation of food intake study. On study day, mice were placed in clean cage bottoms, weighed, and fasted for 6-8 hours. Mice were sorted into groups based on average 24-hour food intake data and body weight. 1-2 hours prior to lights out, mice were dosed subcutaneously with one vehicle or test peptide dissolved in an appropriate vehicle at 5 mL/kg. Mice were left undisturbed and allowed access to food and water for 48 hours. Automated food intake was monitored in the BioDaq system was monitored during this time. Discrete food intake data was exported into MS Excel from which cumulative food intake data was generated and analyzed.

[2] = target: human glucagon receptor (hGCGR) (Homo sapiens, UniProt P47871); test: cAMP production (HTRF) in CHO cells expressing hGCGR; format: cell-based; design: expressed in transfected cells; conditions: cAMP in CHO hGCGR cells, geometric mean, read-out: hGluc-R EC50
Sequence of human glucagon receptor (hGCGR) (P47871 26-477): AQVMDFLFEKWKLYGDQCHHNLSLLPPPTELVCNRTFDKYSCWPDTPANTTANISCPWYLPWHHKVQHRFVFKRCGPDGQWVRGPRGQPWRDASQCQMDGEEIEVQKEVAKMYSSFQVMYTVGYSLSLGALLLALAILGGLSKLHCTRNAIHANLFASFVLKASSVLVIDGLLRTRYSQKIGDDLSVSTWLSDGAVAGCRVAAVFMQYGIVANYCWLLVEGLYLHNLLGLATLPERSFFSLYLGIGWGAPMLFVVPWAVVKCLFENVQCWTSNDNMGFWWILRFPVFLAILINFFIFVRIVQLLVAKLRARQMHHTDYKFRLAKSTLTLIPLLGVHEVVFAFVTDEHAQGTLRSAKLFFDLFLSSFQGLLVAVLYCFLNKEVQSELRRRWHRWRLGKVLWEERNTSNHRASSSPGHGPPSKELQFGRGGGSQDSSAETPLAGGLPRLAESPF
Procedure, shortened: (§1)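 Cells were resuspended in assay buffer at batch-optimized density, typically 1×10^5 cells/mL for hGLP-1R and 2×10^5 cells/mL for hGCGR. After 30 min incubation at room temperature with compound, cAMP was measured by two-step HTRF. EC50 values came from 4-parameter logistic fits of % Delta F.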

[3] = target: human GLP-1 receptor (hGLP-1R) (Homo sapiens, UniProt P43220); test: cAMP production (HTRF) in CHO cells expressing hGLP-1R; format: cell-based; design: expressed in transfected cells; conditions: for EC50: cAMP in CHO hGLP-1R cells, geometric mean, read-out: hGLP-1R EC50; for % Relative Potency Ratio: % GLP-1R activity relative to GLP-1 / % GlucR activity relative to glucagon
Sequence of human GLP-1 receptor (hGLP-1R) (P43220 24-463): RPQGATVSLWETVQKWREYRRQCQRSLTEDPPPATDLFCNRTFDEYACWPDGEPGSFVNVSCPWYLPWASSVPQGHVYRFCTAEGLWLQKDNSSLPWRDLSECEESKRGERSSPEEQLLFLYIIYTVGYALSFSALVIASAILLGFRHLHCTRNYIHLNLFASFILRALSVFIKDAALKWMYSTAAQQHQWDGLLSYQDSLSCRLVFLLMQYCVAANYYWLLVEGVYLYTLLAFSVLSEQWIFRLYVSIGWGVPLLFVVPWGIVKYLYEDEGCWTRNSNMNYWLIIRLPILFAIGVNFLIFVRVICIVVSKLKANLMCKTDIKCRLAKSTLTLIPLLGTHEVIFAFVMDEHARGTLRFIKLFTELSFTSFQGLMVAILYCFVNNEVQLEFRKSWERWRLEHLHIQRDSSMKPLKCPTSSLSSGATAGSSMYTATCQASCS
Procedure, shortened: as §1

[4] = Table 6, peptides modified at position 17
[5] = Table 7, peptides modified at position 20

| SMILES | 24 hr % Vehicle Food Intake [1] [%] | EC50 [2, 4] [nM] | EC50 [3, 4] [nM] | % Relative Potency Ratio ([3]; Table 6) | EC50 [2, 5] [nM] | EC50 [3, 5] [nM] | % Relative Potency Ratio ([3]; Table 7) |
| --- | --- | --- | --- | --- | --- | --- | --- |
| CCCCCCCCCCCCCCCCCC(=O)N[C@@H](CCC(=O)N[C@@H](CCC(=O)NCCOCCOCCC(=O)NCCOCCOCCC(=O)NCCCC[C@H](NC(=O)[C@H](CO)NC(=O)[C@H](CC(=O)O)NC(=O)[C@H](CC(C)C)NC(=O)[C@@H](NC(=O)[C@H](CCCCN)NC(=O)[C@H](CO)NC(=O)[C@@H](NC(=O)[C@H](CC(=O)O)NC(=O)[C@H](CO)NC(=O)[C@@H](NC(=O)[C@](C)(Cc1ccccc1)NC(=O)[C@H](CO)NC(=O)CNC(=O)[C@H](CCC(N)=O)NC(=O)C(C)(C)NC(=O)[C@@H](N)Cc1c[nH]cn1)[C@@H](C)O)C(C)C)C(c1ccccc1)c1ccccc1)C(=O)N[C@@H](C)C(=O)N[C@@H](C)C(=O)N[C@@H](CCC(N)=O)C(=O)N[C@@H](CC(=O)O)C(=O)N[C@@](C)(Cc1ccccc1)C(=O)N[C@H](C(=O)N[C@@H](CCC(=O)O)C(=O)NC(C)(C)C(=O)N[C@@H](CC(C)C)C(=O)N[C@@H](C)C(=O)N[C@@H](CC(N)=O)C(=O)N[C@H](C(N)=O)[C@@H](C)O)C(C)C)C(=O)O)C(=O)O [Peptide 45] (H-H[Aib]QGS[αMeF]TSDVSK[Dip]LDSK([PEG2-PEG2-γGlu-γGlu-Stearoyl])AAQD[αMeF]VE[Aib]LANT-NH2; N-terminus assumed) | 76.2 | 0.0149 | 0.00203 | 14.6 |  |  |  |
| CCCCCCCCCCCCCCCCCC(=O)N[C@@H](CCC(=O)N[C@@H](CCC(=O)NCCOCCOCCC(=O)NCCOCCOCCC(=O)NCCCC[C@H](NC(=O)[C@H](CO)NC(=O)[C@H](CC(=O)O)NC(=O)[C@H](CC(C)C)NC(=O)[C@@H](NC(=O)[C@H](CCCCN)NC(=O)[C@H](CO)NC(=O)[C@@H](NC(=O)[C@H](CC(=O)O)NC(=O)[C@H](CO)NC(=O)[C@@H](NC(=O)[C@](C)(Cc1ccccc1)NC(=O)[C@H](CO)NC(=O)CNC(=O)[C@H](CCC(N)=O)NC(=O)[C@H](CO)NC(=O)[C@@H](N)Cc1c[nH]cn1)[C@@H](C)O)C(C)C)C(c1ccccc1)c1ccccc1)C(=O)N[C@@H](C)C(=O)N[C@@H](C)C(=O)N[C@@H](CCC(N)=O)C(=O)N[C@@H](CC(=O)O)C(=O)N[C@@](C)(Cc1ccccc1)C(=O)N[C@H](C(=O)N[C@@H](CCC(=O)O)C(=O)NC(C)(C)C(=O)N[C@@H](CC(C)C)C(=O)N[C@@H](CCC(=O)O)C(=O)N[C@@H](C)C(=O)NCC(=O)NCC(N)=O)C(C)C)C(=O)O)C(=O)O [Peptide 46] (H-HSQGS[αMeF]TSDVSK[Dip]LDSK([PEG2-PEG2-γGlu-γGlu-Stearoyl])AAQD[αMeF]VE[Aib]LEAGG-NH2; N-terminus assumed) | 72.1 | 0.00591 | 0.00339 | 3.4 |  |  |  |
| CCCCCCCCCCCCCCCC(=O)N[C@@H](CCC(=O)NCCOCCOCCOCCOCCC(=O)NCCCC[C@H](NC(=O)[C@@H](NC(=O)[C@H](CC(=O)O)NC(=O)[C@H](CC(C)C)NC(=O)[C@](C)(Cc1ccccc1)NC(=O)[C@H](CCCCN)NC(=O)[C@H](CO)NC(=O)[C@@H](NC(=O)[C@H](CC(=O)O)NC(=O)[C@H](CO)NC(=O)[C@@H](NC(=O)[C@H](Cc1ccccc1)NC(=O)[C@@H](NC(=O)CNC(=O)[C@H](CCC(N)=O)NC(=O)C(C)(C)NC(=O)[C@@H](N)Cc1c[nH]cn1)[C@@H](C)O)[C@@H](C)O)C(C)C)C(C)C)C(=O)N[C@@H](CCCNC(=N)N)C(=O)N[C@@H](C)C(=O)N[C@@H](CCC(N)=O)C(=O)N[C@@H](CC(=O)O)C(=O)N[C@@](C)(Cc1ccccc1)C(=O)N[C@H](C(=O)N[C@@H](CCC(=O)O)C(=O)NC(C)(C)C(=O)N[C@@H](CC(C)C)C(=O)N[C@@H](CCCC)C(=O)N[C@@H](CCC(=O)O)C(=O)N[C@H](C(N)=O)[C@@H](C)O)C(C)C)C(=O)O [Peptide 68] (H-H[Aib]QGTFTSDVSK[αMeF]LDVK([PEG4-γGlu-Palmitoyl])RAQD[αMeF]VE[Aib]L[Nle]ET-NH2; N-terminus assumed) | 74.2 | 0.00467 | 0.0011 | 8.4 |  |  |  |
| CC(C)C[C@H](NC(=O)[C@H](Cc1c[nH]c2ccccc12)NC(=O)[C@H](CCCNC(=N)N)NC(=O)[C@@H](NC(=O)[C@H](Cc1ccccc1)NC(=O)[C@H](CC(=O)O)NC(=O)[C@H](CCCCNC(=O)COCCOCCNC(=O)COCCOCCNC(=O)CC[C@H](NC(=O)CCCCCCCCCCCCCCCCC(=O)O)C(=O)O)NC(=O)[C@H](C)NC(=O)[C@H](CCCNC(=N)N)NC(=O)[C@H](CCC(=O)O)NC(=O)[C@H](CO)NC(=O)[C@H](CC(=O)O)NC(=O)[C@H](CC(C)C)NC(=O)[C@](C)(Cc1ccccc1)NC(=O)[C@H](CCC(=O)O)NC(=O)[C@H](CO)NC(=O)[C@@H](NC(=O)[C@H](CC(=O)O)NC(=O)[C@H](CO)NC(=O)[C@@H](NC(=O)[C@H](Cc1ccccc1)NC(=O)[C@@H](NC(=O)CNC(=O)[C@H](CCC(N)=O)NC(=O)C(C)(C)NC(=O)[C@@H](N)Cc1c[nH]cn1)[C@@H](C)O)[C@@H](C)O)C(C)C)C(C)C)C(=O)N[C@@H](CCC(=O)O)C(=O)N[C@@H](C)C(=O)NCC(=O)NCC(=O)O [Peptide 524] (H-H[Aib]QGTFTSDVSE[αMeF]LDSERAK([AEEA-AEEA-γGlu-C18 diacid])DFVRWLEAGG-OH) |  |  |  |  | > 24.4 | 0.366 |  |
| CC(C)C[C@H](NC(=O)[C@H](Cc1c[nH]c2ccccc12)NC(=O)[C@H](CCC(N)=O)NC(=O)[C@@H](NC(=O)[C@H](Cc1ccccc1)NC(=O)[C@H](CC(=O)O)NC(=O)[C@H](CCCCNC(=O)COCCOCCNC(=O)COCCOCCNC(=O)CC[C@H](NC(=O)CCCCCCCCCCCCCCCCC(=O)O)C(=O)O)NC(=O)[C@H](C)NC(=O)[C@H](CCCNC(=N)N)NC(=O)[C@H](CCC(=O)O)NC(=O)[C@H](CO)NC(=O)[C@H](CC(=O)O)NC(=O)[C@H](CC(C)C)NC(=O)[C@](C)(Cc1ccccc1)NC(=O)[C@H](CCCCN)NC(=O)[C@H](CO)NC(=O)[C@@H](NC(=O)[C@H](CC(=O)O)NC(=O)[C@H](CO)NC(=O)[C@@H](NC(=O)[C@H](Cc1ccccc1)NC(=O)[C@@H](NC(=O)CNC(=O)[C@H](CCC(N)=O)NC(=O)C(C)(C)NC(=O)[C@@H](N)Cc1c[nH]cn1)[C@@H](C)O)[C@@H](C)O)C(C)C)C(C)C)C(=O)N[C@@H](CCC(=O)O)C(=O)N[C@@H](C)C(=O)NC(C)(C)C(=O)NCC(=O)O [Peptide 525] |  |  |  |  | 2.45 | 0.177 | 27.4 |
| CC(C)C[C@H](NC(=O)[C@H](Cc1c[nH]c2ccccc12)NC(=O)[C@H](C)NC(=O)[C@@H](NC(=O)[C@H](Cc1ccccc1)NC(=O)[C@H](CC(=O)O)NC(=O)[C@H](CCCCNC(=O)COCCOCCNC(=O)COCCOCCNC(=O)CC[C@H](NC(=O)CCCCCCCCCCCCCCCCC(=O)O)C(=O)O)NC(=O)[C@H](C)NC(=O)[C@H](CCCNC(=N)N)NC(=O)[C@H](CCC(=O)O)NC(=O)[C@H](CO)NC(=O)[C@H](CC(=O)O)NC(=O)[C@H](CC(C)C)NC(=O)[C@](C)(Cc1ccccc1)NC(=O)[C@H](CCCCN)NC(=O)[C@H](CO)NC(=O)[C@@H](NC(=O)[C@H](CC(=O)O)NC(=O)[C@H](CO)NC(=O)[C@@H](NC(=O)[C@H](Cc1ccccc1)NC(=O)[C@@H](NC(=O)CNC(=O)[C@H](CCC(N)=O)NC(=O)C(C)(C)NC(=O)[C@@H](N)Cc1c[nH]cn1)[C@@H](C)O)[C@@H](C)O)C(C)C)C(C)C)C(=O)N[C@@H](CCC(=O)O)C(=O)N[C@@H](C)C(=O)NC(C)(C)C(=O)NCC(=O)O [Peptide 526] |  |  |  |  | 0.69 | 0.194 | 7.0 |
